Data reported in US9353419B2, “Biomarkers for IAP inhibitor therapy” (Novartis AG, priority 2012, dated 2016).

Columns and labels:
[1] = system: patient-derived tumor models representing triple negative breast cancer, NSCLC and pancreatic cancer; assay: single agent activity in patient-derived tumor models (primary human tumors grown as xenografts in mice); format: in vivo
Source text: In addition, (S)—N—((S)-1-Cyclohexyl-2-{(S)-2-[4-(4-fluoro-benzoyl)-thiazol-2-yl]-pyrrolidin-1-yl}-2-oxo-ethyl)-2-methylamino-propionamide has been tested for single agent activity in 55 patient-derived tumor models representing triple negative breast cancer, NSCLC and pancreatic cancer models.

[2] = system: panel of >500 tumor cell lines; assay: 72 hour proliferation assay, single agent cellular activity against tumor cell line panel; format: cell-based
Source text: We used a statistical framework that integrates pharmacological data together with genetic and mRNA expression data in order to develop biomarkers for predicting response to IAP inhibitors. Using genomic data generated as part of the Cancer Cell Line Encyclopedia collection (Barretina J S, Caponigro G, Stransky N et al (2012) Nature; 483:603-7), we assembled gene copy number, mRNA expression and mutation data into a single matrix. Single agent cellular activity of various IAP antagonists was assessed against a panel of >500 tumor cell lines using a 72 hour proliferation assay. We classified these cell lines into sensitive, intermediate and refractory classes based on the distribution of IC50 data and manual curation of individual responses. A statistical test was applied in order to identify genomic “features” that could differentiate IAP antagonist-sensitive cell lines from refractory lines. Among the top-ranked genes showing differential mRNA expression were TNF and RIPK1, two genes with evidence for apoptotic response to IAP antagonists based on previous experimental studies involving one or a few cell lines. We are thus able to extend prior observations on limited experiments systematically to a large set of data and identified an additional set of seven genes (CXLC10, CCL5, NFKBIA, HERC5, CDYL, STK39 and MAPK14), whose mRNAs were differentially expressed in sensitive compared refractory lines.
We built a predictive machine learning model using the Naive Bayes classifier based on the 9-gene signature as well as a 2-gene TNF/RIPK1 signature. […] For example, at model cutoffs optimized to obtain balanced performance between sensitivity and specificity for each model, the signatures yielded response rates of 16-18% in cross-validation compared to 8% response rate at random without any selection. This improved response rate was further validated in independent experimental testing of a compound-naive set of cell lines that were predicted to be sensitive (AUCs in Table 2).

For `CN[C@@H](C)C(=O)N[C@H](C(=O)N1CCC[C@H]1c1nc(C(=O)c2ccc(F)cc2)cs1)C1CCCCC1` [(S)—N—((S)-1-Cyclohexyl-2-{(S)-2-[4-(4-fluoro-benzoyl)-thiazol-2-yl]-pyrrolidin-1-yl}-2-oxo-ethyl)-2-methylamino-propionamide], which “single agent activity (range of responses)” value ([1]; 55 patient-derived tumor models) is on record?
Its value is “ranging from tumor regression to no effect”.

And the response rate ([1]; at random, 55 patient-derived tumor models)?
The response rate was 11%.

And the response rate ([1]; models selected by 2-gene, 3-gene and 9-gene signatures, balanced model cutoffs)?
Its response rate is roughly 30%.

What about the “cell line response rate” value ([2]; at random, without any selection ("all-comers" cell lines)) of the same compound?
Its value is 8%.

And the “increase in response rate compared to random or "all-comers" cell lines” value ([2]; at several model cutoff regimes of the predictive signatures)?
Its value is “two- to three-fold”.

What about the “cell line response rate” value ([2]; cell lines selected by gene signatures (2-gene, 9-gene), balanced model cutoffs, cross-validation) of the same compound?
Its value is 16-18%.
